# “Also recorded” adds a separate entry of the source. Where a name gives a salt, the structure may show the parent alone. Read-outs that look alike come from different tables or passages of the source.
# Columns and labels:
# σ receptors = conditions: literature; cited from earlier work
# SIGMA RECEPTOR = molecular target: T1, SIGMA RECEPTOR (Cavia porcellus, UniProt Q60492); assay: Sigma receptor binding assay ([3H]-d-SKF-10,047 displacement, brain membranes); design: species or system guinea-pig (male Hartley); conditions: for IC50: Table 2, aryl ring substituents, read-out: SIGMA RECEPTOR IC50
# T1 construct: Two milliter aliquots of the brain membrane preparation, containing 1.7 mg of protein; tissue Pel-Freeze (Rogers, Arkansas); host or cells: guinea-pig brains plus cerebella, membranes
# T1 sequence (Q60492 whole entry): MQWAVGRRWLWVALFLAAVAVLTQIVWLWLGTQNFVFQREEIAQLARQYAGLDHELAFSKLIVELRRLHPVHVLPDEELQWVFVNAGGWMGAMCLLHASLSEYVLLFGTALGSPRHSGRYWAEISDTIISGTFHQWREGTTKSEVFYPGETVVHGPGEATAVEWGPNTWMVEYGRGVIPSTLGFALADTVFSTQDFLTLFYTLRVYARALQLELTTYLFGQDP
# Procedure: (§1) This example illustrates testing of compounds in receptor binding assays.
# (§2) Frozen brains from male Hartley guinea-pigs were obtained from Pel-Freeze (Rogers, Arkansas).
# (§3) The brains plus cerebella were homogenized in 10 volumes (v/w) of 0.1M, pH 7.4, ice-cold Tris-HCl buffer with a Brinkmann polytron at setting 4 for 20 seconds. The homogenates were centrifuged at 20,000×g for 20 minutes at 4° C. The pellets were suspended in 10 volumes of ice-cold water and, after sitting on ice for 10 minutes, were centrifuged 30 minutes at 20,000×g at 4° C. The resulting pellets were resuspended in the above Tris buffer in ratio 1:100 (w/v) for σ receptor assays or in 5 mM Tris-HCl having pH 7.4, for PCP receptor assays. The final suspension was homogenized with a dounce glass-glass tissue grinder Wheaton "200", at small clearance (B), with three strokes before use. Two milliter aliquots of the brain membrane preparation, containing 1.7 mg of protein, were incubated in quadruplicate for one hour at 23° C. with competing mixture of ligand and radioligand. For σ receptors, [^3 H]-d-SKF-10,047, 2 nM was used. For PCP receptors, [^3 H] TCP [^3 H]-1-[1-(2-thienyl)cyclohexyl]piperidine), 1 nM was used. The nonspecific bindings were defined by 0.1 mM d-SKF-10,047 and 0.1 mM phencyclidine respectively for σ and PCP receptors. After incubation, free ligand was separated from bound ligand by rapid filtration through Whatman GF/C filters. The filters had been soaked before use in isoamyl alcohol-saturated water to prevent nonspecific [^3 H]-d-SKF-10,047 binding to the filter. In the PCP receptor assay, the filter was soaked in 0.5% polyethylenimine to reduce the filter binding of [^3 H]-TCP. After filtration, the trapped tissue was washed three times with 4 ml aliquots of 0.1 M ice-cold Tris buffer at pH 7.4 for σ receptors and 5 mM, ice-cold Tris buffer pH 7.4 for PCP receptors. The filters were transferred to 5 ml of liquid scintillation fluid and the retained radioactivity was measured by liquid scintillation spectrometry.
# α1 -ADRENOCEPTOR = assay: α1-adrenoceptor binding ([3H]-prazosin); design: species or system guinea-pig
# From the text: (§4) This example illustrates the testing of compounds of this invention in dopamine D2, 5-HT2, muscarinic acetylcholine, α1 -adrenoceptor and β-adrenoceptor receptor assays. The receptor assay methods are described in Eur. J. Pharmacol., 155:345 (1988) except that in the β-adrenoceptor assay, [^125 I]-pindolol was used instead of [^3 H] dihydroalprenolol.
# (§5) In this study, guinea-pig brains were used for binding studies. Homogenization and centrifugation procedures for preparation of brain membranes for each receptor assay were the same as described in Example 4 for the σ and PCP receptors. However, brain regions, tissue contents, and buffers may differ depending on the assay. Conditions of binding assays for various receptors were as follows:
# For α1 -adrenoceptor assay, [^3 H]-prazosin (0.4 nM) was incubated in a 1 ml assay (50 mM Tris-HCl, pH 7.4) for 1 hour at 23° C. with membranes from 1 mg of whole brain minus cerebellum.
# (§6) Filtration and washing conditions were the same as described above for the σ receptor assay. Nonspecific binding for each receptor was defined by the inclusion of 1 μM haloperidol for dopamine D2, 1 μM haloperidol for 5-HT2, 10 μM scopolamine for muscarinic acetylcholine, 10 μM prazosin for α1 -adrenoceptor, and 0.2 μM 1-propranolol for β-adrenoceptor. Retained radioactivity was measured by liquid scintillation spectrometry except for ^125 I-pindolol which was measured by the LKB gamma counter.
# (§7) Programs in Biomed. 17:107 (1983)].
# β-ADRENOCEPTOR = assay: β-adrenoceptor binding ([125I]-pindolol); design: species or system guinea-pig
# From the text: as §4, §5
# For β-adrenoceptor, [^125 I]-pindolol (0.05 nM) was incubated in a 1 ml assay (50 mM Tris-HCl, pH 7.4) for 1 hr at 23° C. with membranes from 1 mg of whole brain minus cerebellum.
# as §6, §7
# 5-HT2 = 5-HT2 (Cavia porcellus, UniProt A0A286Y537); assay: 5-HT2 receptor binding; design: species or system guinea-pig
# Chain of 5-HT2 (A0A286Y537 1-470): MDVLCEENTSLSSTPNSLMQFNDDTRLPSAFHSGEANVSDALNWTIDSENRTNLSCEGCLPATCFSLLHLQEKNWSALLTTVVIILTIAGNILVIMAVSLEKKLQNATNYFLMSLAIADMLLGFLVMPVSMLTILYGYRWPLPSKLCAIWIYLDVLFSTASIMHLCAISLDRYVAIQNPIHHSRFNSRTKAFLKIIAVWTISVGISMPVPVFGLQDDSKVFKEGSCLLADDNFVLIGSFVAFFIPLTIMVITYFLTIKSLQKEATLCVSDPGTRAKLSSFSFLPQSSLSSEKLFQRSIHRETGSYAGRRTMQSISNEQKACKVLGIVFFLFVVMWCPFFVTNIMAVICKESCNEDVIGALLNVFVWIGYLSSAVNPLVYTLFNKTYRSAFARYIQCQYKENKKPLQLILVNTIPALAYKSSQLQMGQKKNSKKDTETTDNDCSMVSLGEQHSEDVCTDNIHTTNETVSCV
# From the text: as §4, §5, §6, §7
# PCP RECEPTOR = assay: PCP receptor binding assay ([3H]-TCP displacement, brain membranes); design: species or system guinea-pig (male Hartley)
# Procedure: as §1, §2, §3, §7
# MUSCARINIC ACETYLCHOLINE = assay type: binding, guinea-pig
# From the text: as §4, §5
# For muscarinic acetylcholine assay, […]) [^3 H]-quinuclidinyl benzylate ([^3 H]-QNB) was incubated in a 2 ml assay (50 mM Tris-HCl, pH 7.4) for 2 hours at 23° C. with membranes from 2 mg of whole brain minus cerebellum.
# as §6, §7
# [1] = Table 2, aryl ring substituents, read-out: PCP RECEPTOR IC50
SMILES,potency at σ receptors (in words) (SIGMA RECEPTOR),SIGMA RECEPTOR SLOPE (SIGMA RECEPTOR; Table 2),IC50 (SIGMA RECEPTOR) [µM],IC50 (PCP RECEPTOR; [1]) [nM],also measured
"CCCN1CCC[C@H](c2cccc(O)c2)C1 [(+)-3-PPP, (+)-3-(3-hydroxyphenyl)-N-(1-propyl)piperidine]",,,,,affinity / binding at σ receptors (in words) (σ receptors): bind to σ receptors
"O=C(OCCN1CCOCC1)C1(c2ccccc2)CCCCC1 [Compound 12, 2-(4-Morpholino)ethyl 1-phenylcyclohexane-1-carboxylate hydrochloride]",,,,,"SIGMA RECEPTOR SLOPE (SIGMA RECEPTOR; Table 1, slope of dose response curve): 0.48 ± 0.05; potency at σ receptors (in words) (SIGMA RECEPTOR; hydrochloride): σ receptor potency increased; also recorded: very potent in the σ assay; also recorded: very high; σ potency compared with other known σ ligands (in words) (SIGMA RECEPTOR; vs haloperidol, DTG, (+)-3-PPP, hydrochloride): not as great as other known σ ligands, such as for example haloperidol; also recorded: comparable to other σ ligands such a DTG and (+)-3-PPP; IC50 (α1 -ADRENOCEPTOR; Table 4, IC50 and nM only stated in text, read-out: α1 -ADRENOCEPTOR): > 100000 nM; IC50 (α1 -ADRENOCEPTOR; read-out: potency for α1-adrenoceptor): > 100000 nM; IC50 (β-ADRENOCEPTOR; Table 4, IC50 and nM only stated in text, read-out: β-ADRENOCEPTOR): > 200000 nM; IC50 (β-ADRENOCEPTOR; read-out: potency for β-adrenoceptor): > 200000 nM; IC50 (5-HT2; Table 4, IC50 and nM only stated in text, read-out: 5-HT2): 18700 nM; IC50 (5-HT2; read-out: potency for 5-HT2): 18700 nM; more potent at σ receptors than at 5-HT2 receptors (5-HT2; selectivity σ vs 5-HT2): ≥ 400 fold; IC50 (PCP RECEPTOR; Table 1, mean ± error (n), read-out: PCP RECEPTOR IC50): > 100000 nM; IC50 (PCP RECEPTOR; Table 4, IC50 and nM only stated in text, read-out: PCP): > 100000 nM; potency at PCP receptors (in words) (PCP RECEPTOR; hydrochloride): inactive in the PCP assay; also recorded: very weak or inactive in the PCP assay; also recorded: negligible; also recorded: low potency at PCP receptors; also recorded: relative inactivity; IC50 (PCP RECEPTOR; read-out: IC50 / potency for PCP receptors): < 100000 nM; IC50 (MUSCARINIC ACETYLCHOLINE; Table 4, IC50 and nM only stated in text, read-out: MUSCARINIC ACETYLCHOLINE): 14000 nM; IC50 (MUSCARINIC ACETYLCHOLINE; read-out: potency (IC50) at muscarinic acetylcholine receptor): 14000 nM; more potent at σ receptors than at muscarinic acetylcholine receptors (MUSCARINIC ACETYLCHOLINE; selectivity σ vs muscarinic): at least 300 fold"
COc1ccc(C2(CN3CCCC3)CCCCC2)cc1 [Compound 34],somewhat potent,0.80 ± 0.07,0.546,> 25000,selectivity for σ receptors (in words) (SIGMA RECEPTOR): very selective for σ receptors; potency at PCP receptors (in words) (PCP RECEPTOR): inactive at PCP sites
COc1ccc(C2(CN3CCCC3)CCCCC2)cc1OC [Compound 35],poor to reasonable potency at σ sites,0.66 ± 0.07,1.32,> 25000,selectivity for σ receptors (in words) (SIGMA RECEPTOR): high selectivity for σ receptors
Oc1cccc(C2(CN3CCOCC3)CCCCC2)c1 [Compound 36],,,> 25,> 25000,
COc1cccc(C2(CN3CCOCC3)CCCCC2)c1 [Compound 37],,,> 25,> 25000,
COc1ccc(C2(CN3CCOCC3)CCCCC2)cc1OC [Compound 38],essentially inactive in both σ and PCP binding assays,,> 25,> 25000,potency at PCP receptors (in words) (PCP RECEPTOR): essentially inactive in both σ and PCP binding assays
CCN(CC)CC1(c2ccc([N+](=O)[O-])cc2)CCCCC1 [Compound 39],,0.44 ± 0.01,0.304,> 25000,
CN(C)CC1(c2cccc(O)c2)CCCCC1 [Compound 40],,0.61 ± 0.01,10.1,> 25000,
Cc1ccc(C2(CN(C)C)CCCCC2)cc1 [Compound 41],,0.62 ± 0.03,0.541,> 25000,

# Source: patent US5086054A, “Novel arylcycloalkanepolyalkylamines” (SRI International, priority 1990, dated 1992)
